Experimental data taken from publication PMC7710018, “Restoration of motor learning in a mouse model of Rett syndrome following long-term treatment with a novel small-molecule activator of TrkB” (Disease Models & Mechanisms, 2020).

Experiments:
[1] = system: Het mice; parameters: method as in Li et al., 2017; details: long-term treatment of Het mice; ref Li et al., 2017; cited from earlier work
[2] = system: TrkB; test: In vivo TrkB signaling, western blot of hippocampus and mPFC; parameters: species or system mouse; details: male Mecp2 null mice, vs saline
Description: (§1) Animals were given either single or repeated doses of PTX-BD4-3 (50 mg/kg, i.p.) or vehicle (saline) and then sacrificed for tissue harvesting and western blot analysis of phosphorylated and total TrkB (pTrkB/TrkB), AKT (also known as AKT1) (pAKT/AKT) and ERK (also known as MAPK) (pERK/ERK), respectively, in the hippocampus and medial prefrontal cortex (mPFC).
(§2) Fig. 4. PTX-BD4-3 activates TrkB signaling in vivo following systemic administration in null male Mecp2 mutant mice. Null mice were treated for 5 days with once daily injections of PTX-BD4-3 (open bars, 50 mg/kg, i.p.) or saline (black bars, vehicle) and then sacrificed 1 h after the last injection. Brain lysates from the hippocampus and medial prefrontal cortex (mPFC) were processed for western blot analysis of phosphorylated and total TrkB (pTrkB^Y817/TrkB), AKT (pAKT/AKT) and ERK (pERK/ERK) as described in the Materials and Methods. For detection of total TrkB, AKT and ERK, blots were concomitantly probed with the respective total protein antibodies and each of the three bands quantitated as indicated by arrows. For ERK, the pair of bands (consistent with ERK1 and ERK2 isoforms) indicated by the brackets was quantitated together as one value. For each tissue, the same blot and images for total protein (TrkB, AKT, ERK, actin) are shown here in triplicate as an adjacent reference to phospho-protein detection. For detection of phospho-proteins in the hippocampus, blots were probed separately with the three indicated phospho antibodies. For detection in the mPFC, blots were probed separately for pTrkB and probed for pAKT and pERK concomitantly; and for the latter two, the same blot and image are shown here in duplicate as an adjacent reference to phospho-protein detection. ^§P<0.01 (compared to vehicle); *P<0.05 (compared to vehicle); Student's t-test.
(§3) Frozen tissues were lysed in RIPA lysis buffer (150 mM NaCl, 50 mM Tris, pH 7.4, 1 mM EDTA, 1% Triton X-100 or 1% NP40, 10% glycerol, 1 mM phenylmethylsulfonyl fluoride, Na3VO4 and protease inhibitor cocktail). Lysates were mixed with 4× NuPAGE LDS loading buffer and dithiothreitol, and 50 μg protein was loaded per lane on a NuPAGE 4-12% Bis-Tris gradient gel and transferred to polyvinylidene difluoride membrane (run at 100 V for 1.5 h). […]

[3] = system: AKT; test: as above; parameters: species or system mouse; details: male Mecp2 null mice, 50 mg/kg i.p. once daily 5 days, 1 h after last injection, vs saline
Description: as §1, §2, §3

[4] = system: ERK; test: as above; parameters: species or system mouse; details: male Mecp2 null mice, 50 mg/kg i.p. once daily 5 days, 1 h after last injection, vs saline
Description: as §1, §2, §3

[5] = system: heterozygous (Het) female Mecp2 mutant mice; test: Phenotype severity score; assay type: in vivo, mouse; details: for group average phenotype severity score: 5 mg/kg q72 hrs
Description: Group Pre‐Treatment Week 2 Week 4 Week 6 Week 8
Table S3. Group average bi-weekly phenotype severity scores after repeated dosing with PTX-BD4-3 (5 mg/kg, q72 hrs). Animals were assigned aggregate scores of phenotypic severity based on visual assessments of mobility, hind limb clasping, gait analysis, tremors, respiration and overall physical condition (scoring range = 0-12; Guy et al., 2007). The phenotype severity scores of Het animals […]
(also on this page, place not known: tr eatment Disease Models & Mechanisms: doi:10.1242/dmm.044685: Supplementary information Disease Models & Mechanisms • Supplementary information) […]

[6] = system: heterozygous (Het) female Mecp2 mutant mice; test: Rotarod; assay type: in vivo, mouse; details: 5 mg/kg q72 h
Description: Small-molecule compounds were diluted in saline and delivered by i.p. injection. To define the acute effects of single drug treatments, behavioral testing was initiated 1 h after dosing. Durable effects of single drug treatments were evaluated 24 h after dosing. […]
A Rotarod apparatus (Columbus Instruments) was used test to assess sensorimotor coordination. Animals were placed on a rotating rod at a constant speed of 4 rpm for 1 min of acclimation. […] Latency of the animal to fall was recorded. The test was repeated three times, with each trial separated by 15 min, to assess potential learning components of any observed phenotypes.

In the case of `O=C(NCCO)c1cc(C(=O)NCCO)cc(C(=O)NCCO)c1` [LM22A-4, N,N′,N′′-tris(2-hydroxyethyl)-1,3,5-benzenetricarboxamide, reference compound], the “behavioral learning in a spatial memory task” value [1] is listed as “improves behavioral learning”.
With `COCCN(C)C(=O)c1cc(C(=O)N(C)CCOC)cc(C(=O)N(C)CCOC)c1` [PTX-BD4-3, benzene-1,3,5-tricarboxylic acid tris-[(2-methoxy-ethyl)-methyl-amide]] the pTrkB/TrkB ([2]; 50 mg/kg i.p. once daily 5 days, 1 h after last injection, hippocampus and mPFC) was “significantly increased”, the “expression of total TrkB, AKT or ERK” value ([2]; 50 mg/kg i.p.) was “No differences” and the pAKT/AKT [3] was “significantly increased”. The pERK/ERK [4] was “no significant effect”, the “change of global phenotypic severity scores over the time course” value ([5]; 5 mg/kg q72 h, pre-treatment vs 8 weeks) was “did not increase significantly” and the “group average phenotype severity score” value ([5]; Week 2, scoring range 0-12, pre-treatment 2.73) was 3.46. For the same compound, the “group average phenotype severity score” value ([5]; Week 4, scoring range 0-12) was 3.66, the “group average phenotype severity score” value ([5]; Week 6, scoring range 0-12) was 4.33 and the “group average phenotype severity score” value ([5]; Week 8, scoring range 0-12) was 3.66. The “Rotarod performance (latency to fall)” value ([6]; 2 weeks, repeated testing, 24 h after last dose) was “as impaired as their saline-treated Het littermates”, the “Rotarod performance (latency to fall)” value ([6]; 8 weeks, repeated testing at 2, 4, 8 weeks, 24 h after last dose) was “comparable to that of saline-treated Wt controls” and the “Rotarod performance (latency to fall)” value ([6]; 8 weeks, tested only at the end of treatment, vs saline-treated Het) was “no improvement”.
